Test results taken from BindingDB's records for doi:10.1021/jm300416h (Taiho Pharmaceutical, 2012).

test: Inhibition of human dUTPase-mediated cell proliferation in HeLa S3 cells after 72 hrs by crystal violet staining

IC50 [nM] | SMILES
38200 | C[C@@H](NS(=O)(=O)CC/C=C/Cn1ccc(=O)[nH]c1=O)c1cccc(OCC2CC2)c1

test: Inhibition of human dUTPase-mediated cell proliferation in HeLa S3 cells assessed as compound concentration required to reduce 50% of 1 uM of FdUrd T/C after 24 hrs by crystal violet staining

SMILES | EC50 [nM]
CC(C)(CCCOCn1ccc(=O)[nH]c1=O)NS(=O)(=O)c1ccccc1 | 5100
CC(C)(NS(=O)(=O)c1ccccc1)c1ccc(Cn2ccc(=O)[nH]c2=O)cc1 | 2600
COc1cccc(S(=O)(=O)NC(C)(C)c2ccc(Cn3ccc(=O)[nH]c3=O)cc2)c1 | 3130
CC(C)(CC/C=C/Cn1ccc(=O)[nH]c1=O)NS(=O)(=O)c1ccccc1 | 2600
COc1cccc(S(=O)(=O)NC(C)(C)CC/C=C/Cn2ccc(=O)[nH]c2=O)c1 | 450
C[C@@H](NS(=O)(=O)c1ccc(Cn2ccc(=O)[nH]c2=O)cc1)c1cccc(OCC2CC2)c1 | 930
C[C@@H](NS(=O)(=O)c1ccc(Cn2ccc(=O)[nH]c2=O)cc1)c1cccc(OC2CCCC2)c1 | 610
C[C@@H](NS(=O)(=O)c1ccc(Cn2ccc(=O)[nH]c2=O)cc1)c1cccc(OCC(F)F)c1 | 610

The next compounds have a lower EC50 than those just listed; values first:

EC50 [nM] | SMILES
200 | CC(C)(CC/C=C/Cn1ccc(=O)[nH]c1=O)NS(=O)(=O)c1cccc(OC2CCCC2)c1
150 | C[C@@H](NS(=O)(=O)CC/C=C/Cn1ccc(=O)[nH]c1=O)c1cccc(OC2CCCC2)c1
140 | CC(C)(NS(=O)(=O)c1cccc(OCC2CC2)c1)c1ccc(Cn2ccc(=O)[nH]c2=O)cc1
120 | CC(C)(NS(=O)(=O)c1cccc(OC2CCCC2)c1)c1ccc(Cn2ccc(=O)[nH]c2=O)cc1
100 | CC(C)(NS(=O)(=O)c1cccc(OCC(F)F)c1)c1ccc(Cn2ccc(=O)[nH]c2=O)cc1
96 | C[C@@H](NS(=O)(=O)CC/C=C/Cn1ccc(=O)[nH]c1=O)c1cccc(OCC(F)F)c1
66 | C[C@@H](NS(=O)(=O)CC/C=C/Cn1ccc(=O)[nH]c1=O)c1cccc(OCC2CC2)c1
49 | CC(C)(CC/C=C/Cn1ccc(=O)[nH]c1=O)NS(=O)(=O)c1cccc(OCC(F)F)c1
